According to US10039747B2, “Tetrahydrocyclopentapyrrole derivatives and a method for preparing the same” (Daewoong Pharmaceutical Co., Ltd., priority 2013, dated 2018):

Biological target: T1, H+/K+-ATPase (Sus scrofa, UniProt P19156)
T1 construct: reaction buffer solution (60 mmol/l Tris-HCl buffer solution, pH 7.4) containing hog gastric vesicle; from tissue; host or cells: hog stomach (gastric vesicles, by centrifugation after Rabon et al. 1988)
Assay: Inhibition of proton pump (H+/K+-ATPase) activity in hog gastric vesicles
Type: biochemical
Details: K+ specific H+/K+-ATPase activity, pH 7.4, 37° C. for 40 minutes, malachite green
Protocol: 1) Preparation of Gastric Vesicles
Gastric vesicles were prepared from hog stomach by centrifugation (Edd C. Rabon et al., Preparation of Gastric H^+,K^+-ATPase, Methods in enzymology, vol. 157 Academic Press Inc., (1988), pp. 649-654). The protein contents of the prepared gastric vesicles were quantified with a Bicinchoninic Acid (BCA) kit.
2) Measurement of Effect of Inhibiting Proton Pump (H^+/K^+-ATPase) Activity
The effect of inhibiting proton pump activity by the compound of the present invention was measured in a 96-well plate. In this experiment, K^+ specific H^+/K^+-ATPase activity was calculated based on the difference between H^+/K^+-ATPase activity in the presence of K^+ ions and H^+/K^+-ATPase activity in the absence of K^+ ions. In the 96-well plate, to negative and positive control groups, 0.5% dimethylsulfoxide (DMSO) in buffer was added, and to the test groups, the compound of the present invention was added. All the analyses were conducted at room temperature with the reaction volume of 100 μl. To a reaction buffer solution (60 mmol/l Tris-HCl buffer solution, pH 7.4) containing hog gastric vesicle, DMSO and each concentration of compound were added, and then, 10 μl of a 10 mmol/l adenosine triphosphate tris buffer solution (60 mmol/l Tris-HCl buffer solution, pH 7.4) was added to initiate an enzyme reaction. The enzyme reaction was conducted at 37° C. for 40 minutes, 50 μl of a malachite green solution (0.12% malachite green solution, 5.8% ammonium molybdate and 11% tween 20 were mixed at a ratio of 100:67:2 in 6.2 N sulfuric acid) was added to stop the reaction, and 50 μl of 15.1% sodium citrate was added. During the reaction, the amount of monophosphate (Pi) was measured at 570 nm using micro plate reader (FLUOstar Omega, BMG Company). Inhibition rate (%) was measured from the activity values of the control groups and the activity values of various concentrations of the test compound, and IC50 of the test compound was calculated from each % inhibition value of the compound using Logistic 4-parameter function of Sigmaplot 8.0 program.

T1 sequence (P19156 2-1034 limits assumed): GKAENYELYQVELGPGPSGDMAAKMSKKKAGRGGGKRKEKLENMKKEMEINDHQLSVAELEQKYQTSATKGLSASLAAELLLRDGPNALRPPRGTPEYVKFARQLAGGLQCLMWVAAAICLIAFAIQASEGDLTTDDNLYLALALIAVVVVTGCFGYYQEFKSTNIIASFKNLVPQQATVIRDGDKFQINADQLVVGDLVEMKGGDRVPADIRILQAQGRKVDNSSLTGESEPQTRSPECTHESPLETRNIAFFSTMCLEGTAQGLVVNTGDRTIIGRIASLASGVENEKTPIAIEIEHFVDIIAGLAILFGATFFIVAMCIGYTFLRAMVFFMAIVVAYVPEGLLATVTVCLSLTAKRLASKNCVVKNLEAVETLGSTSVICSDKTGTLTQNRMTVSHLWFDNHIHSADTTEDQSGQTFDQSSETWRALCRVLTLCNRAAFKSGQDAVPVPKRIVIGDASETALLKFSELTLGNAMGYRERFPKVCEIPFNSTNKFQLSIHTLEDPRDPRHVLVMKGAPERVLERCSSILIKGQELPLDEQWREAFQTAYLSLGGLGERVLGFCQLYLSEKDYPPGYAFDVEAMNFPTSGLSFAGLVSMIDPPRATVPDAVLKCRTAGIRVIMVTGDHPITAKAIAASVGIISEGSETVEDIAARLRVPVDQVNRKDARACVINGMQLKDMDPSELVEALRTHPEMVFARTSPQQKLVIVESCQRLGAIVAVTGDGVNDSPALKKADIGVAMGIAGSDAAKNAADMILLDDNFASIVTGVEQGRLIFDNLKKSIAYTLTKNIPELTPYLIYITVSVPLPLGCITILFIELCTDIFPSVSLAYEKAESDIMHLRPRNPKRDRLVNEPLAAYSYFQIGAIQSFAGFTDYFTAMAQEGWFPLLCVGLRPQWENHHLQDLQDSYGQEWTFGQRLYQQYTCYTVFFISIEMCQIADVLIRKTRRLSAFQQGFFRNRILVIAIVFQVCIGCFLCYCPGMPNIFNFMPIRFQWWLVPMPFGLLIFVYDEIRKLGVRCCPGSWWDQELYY
T1 sequence (P18434 whole entry partner): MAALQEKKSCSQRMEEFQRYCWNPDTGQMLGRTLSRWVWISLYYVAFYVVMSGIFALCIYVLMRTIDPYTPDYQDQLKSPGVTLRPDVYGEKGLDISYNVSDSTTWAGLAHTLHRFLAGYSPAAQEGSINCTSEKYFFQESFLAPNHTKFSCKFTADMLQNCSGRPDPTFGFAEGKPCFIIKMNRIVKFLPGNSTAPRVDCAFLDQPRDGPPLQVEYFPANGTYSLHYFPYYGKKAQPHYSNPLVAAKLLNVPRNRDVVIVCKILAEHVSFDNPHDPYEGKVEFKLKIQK

| IC50 [nM] | Compound |
| --- | --- |
| 770 | CNC1CCc2c1cn(S(=O)(=O)c1cc(Cl)cc(Cl)c1)c2-c1cc(Cl)ccc1Cl (stereo not drawn) [Example 79, 1-(2,5-dichlorophenyl)-2-((3,5-dichlorophenyl)sulfonyl)-N-methyl-2,4,5,6-tetrahydrocyclopenta[c]pyrrol-4-amine] |
| 620 | CNC1CCc2c1cn(S(=O)(=O)c1ccc(Cl)c(Cl)c1Cl)c2-c1ccccc1F (stereo not drawn) [Example 80, 1-(2-fluorophenyl)-N-methyl-2-((2,3,4-trichlorophenyl)sulfonyl)-2,4,5,6-tetrahydrocyclopenta[c]pyrrol-4-amine] |
| 1140 | CNC1CCc2c1cn(S(=O)(=O)c1cc(Cl)c(Cl)cc1Cl)c2-c1ccccc1 (stereo not drawn) [Example 81, N-methyl-1-phenyl-2-((2,4,5-trichlorophenyl)sulfonyl)-2,4,5,6-tetrahydrocyclopenta[c]pyrrol-4-amine] |
| 660 | CNC1CCc2c1cn(S(=O)(=O)c1cc(Cl)c(Cl)cc1Cl)c2-c1ccc(C)cc1F (stereo not drawn) [Example 82, 1-(2-fluoro-4-methylphenyl)-N-methyl-2-((2,4,5-trichlorophenyl)sulfonyl)-2,4,5,6-tetrahydrocyclopenta[c]pyrrol-4-amine] |
| 980 | CNC1CCc2c1cn(S(=O)(=O)c1cc(Cl)c(Cl)cc1Cl)c2-c1cc(Cl)ccc1Cl (stereo not drawn) [Example 83, 1-(2,5-dichlorophenyl)-N-methyl-2-((2,4,5-trichlorophenyl)sulfonyl)-2,4,5,6-tetrahydrocyclopenta[c]pyrrol-4-amine] |
| 390 | CNC1CCc2c1cn(S(=O)(=O)c1cc(Cl)c(Cl)cc1Cl)c2-c1ccccc1F (stereo not drawn) [Example 84, 1-(2-fluorophenyl)-N-methyl-2-((2,4,5-trichlorophenyl)sulfonyl)-2,4,5,6-tetrahydrocyclopenta[c]pyrrol-4-amine] |
| 2190 | CNC1CCc2c1cn(S(=O)(=O)c1c(Cl)cc(Cl)cc1Cl)c2-c1ccccc1F (stereo not drawn) [Example 85, 1-(2-fluorophenyl)-N-methyl-2-((2,4,6-trichlorophenyl)sulfonyl)-2,4,5,6-tetrahydrocyclopenta[c]pyrrol-4-amine] |
| 5950 | CNC1CCc2c1cn(S(=O)(=O)c1c(Cl)cc(C(F)(F)F)cc1Cl)c2-c1ccccc1F (stereo not drawn) [Example 86, 2-((2,6-dichloro-4-(trifluoromethyl)phenyl)sulfonyl)-1-(2-fluorophenyl)-N-methyl-2,4,5,6-tetrahydrocyclopenta[c]pyrrol-4-amine] |
| 1440 | CNC1CCc2c1cn(S(=O)(=O)c1cccs1)c2-c1ccccc1F (stereo not drawn) [Example 87, 1-(2-fluorophenyl)-N-methyl-2-(thiophen-2-ylsulfonyl)-2,4,5,6-tetrahydrocyclopenta[c]pyrrol-4-amine] |
| 510 | CNC1CCc2c1cn(S(=O)(=O)c1cccnc1)c2-c1ccccc1F (stereo not drawn) [Example 88, 1-(2-fluorophenyl)-N-methyl-2-(pyridin-3-ylsulfonyl)-2,4,5,6-tetrahydrocyclopenta[c]pyrrol-4-amine] |
| 1190 | CNC1CCc2c1cn(S(=O)(=O)c1cccnc1)c2-c1ccccc1Cl (stereo not drawn) [Example 89, 1-(2-chlorophenyl)-N-methyl-2-(pyridin-3-ylsulfonyl)-2,4,5,6-tetrahydrocyclopenta[c]pyrrol-4-amine] |
| 520 | CNC1CCc2c1cn(S(=O)(=O)c1cccnc1)c2-c1ccc(C)cc1F (stereo not drawn) [Example 90, 1-(2-fluoro-4-methylphenyl)-N-methyl-2-(pyridin-3-ylsulfonyl)-2,4,5,6-tetrahydrocyclopenta[c]pyrrol-4-amine] |
| 690 | CNC1CCc2c1cn(S(=O)(=O)c1cccnc1)c2-c1ccc(Cl)cc1F (stereo not drawn) [Example 91, 1-(4-chloro-2-fluorophenyl)-N-methyl-2-(pyridin-3-ylsulfonyl)-2,4,5,6-tetrahydrocyclopenta[c]pyrrol-4-amine] |
| 350 | CNC1CCc2c1cn(S(=O)(=O)c1cccnc1)c2-c1cc(Cl)ccc1Cl (stereo not drawn) [Example 92, 1-(2,5-dichlorophenyl)-N-methyl-2-(pyridin-3-ylsulfonyl)-2,4,5,6-tetrahydrocyclopenta[c]pyrrol-4-amine] |
| 340 | CNC1CCc2c1cn(S(=O)(=O)c1cccnc1)c2-c1cc(Cl)cc(C)c1F (stereo not drawn) [Example 93, 1-(5-chloro-2-fluoro-3-methylphenyl)-N-methyl-2-(pyridin-3-ylsulfonyl)-2,4,5,6-tetrahydrocyclopenta[c]pyrrol-4-amine] |
| 470 | CNC1CCc2c1cn(S(=O)(=O)c1cccnc1)c2-c1ccsc1 (stereo not drawn) [Example 94, N-methyl-2-(pyridin-3-ylsulfonyl)-1-(thiophen-3-yl)-2,4,5,6-tetrahydrocyclopenta[c]pyrrol-4-amine] |

Second part, the compound before the results:

| Compound | IC50 [nM] |
| --- | --- |
| CNC1CCc2c1cn(S(=O)(=O)c1ccc(F)cc1F)c2-c1ccccc1F (stereo not drawn) [Example 65, 2-((2,4-difluorophenyl)sulfonyl)-1-(2-fluorophenyl)-N-methyl-2,4,5,6-tetrahydrocyclopenta[c]pyrrol-4-amine] | 940 |
| CNC1CCc2c1cn(S(=O)(=O)c1ccc(F)cc1Cl)c2-c1ccccc1F (stereo not drawn) [Example 66, 2-((2-chloro-4-fluorophenyl)sulfonyl)-1-(2-fluorophenyl)-N-methyl-2,4,5,6-tetrahydrocyclopenta[c]pyrrol-4-amine] | 500 |
| CNC1CCc2c1cn(S(=O)(=O)c1ccc(C#N)cc1Cl)c2-c1ccccc1F (stereo not drawn) [Example 67, 3-chloro-4-((1-(2-fluorophenyl)-4-(methylamino)-5,6-dihydrocyclopenta[c]pyrrol-2(4H)-yl)sulfonyl)benzonitrile] | 1260 |
| CNC1CCc2c1cn(S(=O)(=O)c1ccc(OC(F)(F)F)cc1Cl)c2-c1ccccc1F (stereo not drawn) [Example 68, 2-((2-chloro-4-(trifluoromethoxy)phenyl)sulfonyl)-1-(2-fluorophenyl)-N-methyl-2,4,5,6-tetrahydrocyclopenta[c]pyrrol-4-amine] | 840 |
| CNC1CCc2c1cn(S(=O)(=O)c1ccc(C(F)(F)F)cc1Cl)c2-c1ccccc1F (stereo not drawn) [Example 69, 2-((2-chloro-4-(trifluoromethyl)phenyl)sulfonyl)-1-(2-fluorophenyl)-N-methyl-2,4,5,6-tetrahydrocyclopenta[c]pyrrol-4-amine] | 1620 |
| CNC1CCc2c1cn(S(=O)(=O)c1cc(Cl)ccc1Cl)c2-c1ccccc1F (stereo not drawn) [Example 70, 2-((2,5-dichlorophenyl)sulfonyl)-1-(2-fluorophenyl)-N-methyl-2,4,5,6-tetrahydrocyclopenta[c]pyrrol-4-amine] | 430 |
| CNC1CCc2c1cn(S(=O)(=O)c1cc(Cl)ccc1Cl)c2-c1ccc(F)cc1F (stereo not drawn) [Example 71, 2-((2,5-dichlorophenyl)sulfonyl)-1-(2,4-difluorophenyl)-N-methyl-2,4,5,6-tetrahydrocyclopenta[c]pyrrol-4-amine] | 670 |
| CNC1CCc2c1cn(S(=O)(=O)c1cc(Cl)ccc1Cl)c2-c1ccc(C)cc1F (stereo not drawn) [Example 72, 2-((2,5-dichlorophenyl)sulfonyl)-1-(2-fluoro-4-methylphenyl)-N-methyl-2,4,5,6-tetrahydrocyclopenta[c]pyrrol-4-amine] | 480 |
| CNC1CCc2c1cn(S(=O)(=O)c1cc(Cl)ccc1Cl)c2-c1cc(Cl)ccc1Cl (stereo not drawn) [Example 73, 1-(2,5-dichlorophenyl)-2-((2,5-dichlorophenyl)sulfonyl)-N-methyl-2,4,5,6-tetrahydrocyclopenta[c]pyrrol-4-amine] | 670 |
| CNC1CCc2c1cn(S(=O)(=O)c1cc(C(F)(F)F)ccc1Cl)c2-c1ccccc1F (stereo not drawn) [Example 74, 2-((2-chloro-5-(trifluoromethyl)phenyl)sulfonyl)-1-(2-fluorophenyl)-N-methyl-2,4,5,6-tetrahydrocyclopenta[c]pyrrol-4-amine] | 520 |
| CNC1CCc2c1cn(S(=O)(=O)c1c(Cl)cccc1Cl)c2-c1ccccc1F (stereo not drawn) [Example 75, 2-((2,6-dichlorophenyl)sulfonyl)-1-(2-fluorophenyl)-N-methyl-2,4,5,6-tetrahydrocyclopenta[c]pyrrol-4-amine] | 2140 |
| CNC1CCc2c1cn(S(=O)(=O)c1ccc(Cl)c(Cl)c1)c2-c1ccccc1F (stereo not drawn) [Example 76, 2-((3,4-dichlorophenyl)sulfonyl)-1-(2-fluorophenyl)-N-methyl-2,4,5,6-tetrahydrocyclopenta[c]pyrrol-4-amine] | 490 |
| CNC1CCc2c1cn(S(=O)(=O)c1cc(Cl)cc(Cl)c1)c2-c1ccccc1F (stereo not drawn) [Example 77, 2-((3,5-dichlorophenyl)sulfonyl)-1-(2-fluorophenyl)-N-methyl-2,4,5,6-tetrahydrocyclopenta[c]pyrrol-4-amine] | 410 |
| CNC1CCc2c1cn(S(=O)(=O)c1cc(Cl)cc(Cl)c1)c2-c1ccc(C)cc1F (stereo not drawn) [Example 78, 2-((3,5-dichlorophenyl)sulfonyl)-1-(2-fluoro-4-methylphenyl)-N-methyl-2,4,5,6-tetrahydrocyclopenta[c]pyrrol-4-amine] | 460 |
